# pEC50, pKd: −log10 of the molar value. Like-named read-outs stand apart in the source and are kept apart here.
# Tests used:
# [1] = biological target: T1, Biotinylated human CD80 (hCD80-BT) (Homo sapiens, UniProt P33681); experiment: BIAcore biomolecular interaction analysis, binding to immobilised hCD80-BT; parameters: off-rate on CD80: unit not given here; details: BIAcore S51, immobilised hCD80-BT
# T1 construct: biotin (biotinylated)
# T1 sequence (P33681 35-242 limits assumed): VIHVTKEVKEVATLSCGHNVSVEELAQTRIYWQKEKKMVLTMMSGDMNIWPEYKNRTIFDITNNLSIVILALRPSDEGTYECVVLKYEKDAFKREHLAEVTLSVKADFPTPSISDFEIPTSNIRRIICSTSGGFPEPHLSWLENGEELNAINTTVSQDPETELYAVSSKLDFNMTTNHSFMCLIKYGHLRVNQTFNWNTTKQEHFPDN
# Description: The Use of BIAcore Biomolecular Interaction Analysis
# Biotinylated human CD80 (hCD80-BT) is a recombinant soluble form of a membrane bound receptor molecule (CD80) which binds to CD28 to initiate T cell activation. The interaction between CD80 and CD28 has been extensively investigated (Collins et al, 2002). Biotinlyated human HLA-A2-tax is the recombinant soluble form of a membrane bound receptor molecule that has been used in this example as a control protein, and is not expected to interact with the compounds.
# The BIAcore S51™ system was used for screening the compounds of Examples 1-4 above. A series S sensor chip CM5 was docked onto the BIAcore S51™. Streptavidin was coupled to the carboxymethyl surface using standard amine coupling. The chip surface was activated with 0.2M EDC/0.05M NHS, followed by binding of streptavidin (0.25 mg/ml in 10 mM sodium acetate pH 5.0) and saturation of unoccupied sites with […].
# The BIAcore S51 sensor chip has two separate sensor spots for immobilisation of proteins. hCD80-BT was immobilised on the streptavidin-coated surface of one sensor spot until a response of approximately 3000 RU was observed. A protein to control for non-specific binding of the compound was immobilised on a second sensor spot. The control protein used for these experiments was a biotinylated, soluble form of the human HLA protein.
# Dilution series of compounds (1000 nM-0.05 nM) were prepared in running buffer (10 mM, pH 7.4, 150 mM NaCl, 0.005% P20; 5% DMSO).
# BIAcore S51™ was run at a flow rate of 30 μl/min using running buffer. Compounds and DMSO standard solutions for correction of data for solvent effects were injected. Data were recorded automatically and were analysed using BIAcore S51 Evaluation software.
# CD80-CD28 interaction = biological target: T2, CD80-CD28 interaction (Homo sapiens, UniProt P33681); experiment: Homogenous Time Resolved Fluorescence (HTRF) assay, cell free; type: binding; details: inhibition of the CD80-CD28 interaction, 4 hours at room temperature; read-out: EC50 activity in the HTRF assay
# T2 sequence (P33681 35-242 limits assumed): T1 sequence (P33681 35-242 limits assumed)
# How it was run: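 In pH7.8 Tris-HCl/NaCl buffer with 0.1% BSA, a 100 μM-1.7 nM compound series was incubated for 4 h at room temperature with CD28 and CD80 fusions carrying europium and APC via linker antibodies. Time-resolved signals at 665 and 615 nm were read after 340 nm excitation; a C215 Fab swap defined background. EC50 given as banded classes.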
# [2] = biological target: T1, Biotinylated human CD80 (hCD80-BT); details: CD80/CD28 interaction, cited from earlier work
# [3] = system: production of Interleukin-2 (IL-2) by Human Jurkat T Cells; experiment: Inhibition of production of interleukin-2 (IL-2) by human Jurkat T cells (Raji/Jurkat co-culture, anti-CD3, IL-2 ELISA); type: cell-based; details: at 30 μM, read-out: inhibition of IL-2 production
# Experimental: • Collins A V et al. (2002) Immunity 17, 201-210 “The interaction properties of costimulatory molecules revisited” Inhibition of Production of Interleukin-2 (IL-2) by Human Jurkat T Cells. Method
# Human Raji cells were dispensed at a concentration of 2×10^5 cells per well in RPMI-1640 medium supplemented with 10% fetal calf serum, 1% penicillin/streptomycin, 1% glutamine (RPMI medium) in a 96-well round bottom microtitre plate. Compounds under investigation (dissolved in 100% DMSO) were diluted to eight-fold the desired final concentration in RPMI medium and added to the required final concentration for a total volume of 200 μl per well. After 20 minutes incubation at 37° C., Jurkat T cells were added at a concentration of 2×10^5 cells per well. Monoclonal antibody to CD3 (UCHT1, R&D Systems) was added to the cultures at a final concentration of 1 μg per ml, and where indicated, monoclonal antibody to CD28 (CD28.2, BD-Pharmingen) was also added at a concentration of 2.5 μg per ml. Cells were cultured at 37° C. for 5 hours, after which the plates were centrifuged and the supernatants harvested for IL-2 ELISA assay using the IL-2 Eli-pair kit (DIACLONE Research, Besancon, France) according to the manufacturers instructions.
Molecule,pKd [1],off-rate on CD80 [1],pEC50 (CD80-CD28 interaction),off-rate of CD80 interaction with endogenous protein ligand [2],pKd ([2]; read-out: KD of CD80 interaction with endogenous protein ligand),inhibition at 30 µM [3] [%]
"CN1C(C)(C)CC(NC(=O)c2ccc(-n3[nH]c4c(nnc5c(F)cccc54)c3=O)cc2)CC1(C)C [Example 7, 4-(6-fluoro-3-oxo-1,3-dihydro-2H-pyrazolo[4,3-c]cinnolin-2-yl)-n-(1,2,2,6,6-pentamethylpiperidine-4-yl)benzamide]",> 7.00,2×10^−2,> 6.00,–,–,–
"CD28: ""the endogenous protein ligand (CD28)"" of CD80; ""CD28 on T-cells""",–,–,–,greater than 0.2 s^−1,5.32,–
"O=C(NCCCNC1CCCCC1)c1ccc(-n2[nH]c3c(nnc4ccccc43)c2=O)cc1 [Example 4, N-[(cyclohexylamino)propyl]-4-(3-oxo-1,3-dihydro-2H-pyrazolo[4,3-c]cinnolin-2-yl)benzamide]",> 7.00,2×10^−2,> 6.00,–,–,–
"CN(C)CCCNC(=O)c1ccc(-n2[nH]c3c(nnc4ccccc43)c2=O)cc1 [Example 2, N-[(dimethylamino)propyl]-4-(3-oxo-1,3-dihydro-2H-pyrazolo[4,3-c]cinnolin-2-yl)benzamide]",> 7.00,2×10^−2,> 6.00,–,–,65

# Now from value to molecule, other results behind:
pKd [1],off-rate on CD80 [1],pEC50 (CD80-CD28 interaction),Molecule,off-rate of CD80 interaction with endogenous protein ligand [2],pKd ([2]; read-out: KD of CD80 interaction with endogenous protein ligand),inhibition at 30 µM [3] [%]
> 7.00,2×10^−2,> 6.00,"O=C(NCc1ccccc1)c1ccc(-n2[nH]c3c(nnc4ccccc43)c2=O)cc1 [Example 3, N-benzyl-4-(3-oxo-1,3-dihydro-2H-pyrazolo[4,3-c]cinnolin-2-yl)benzamide]",–,–,–
> 7.00,2×10^−2,> 6.00,"O=C(NCCCCN1CCCC1)c1ccc(-n2[nH]c3c(nnc4c(F)cccc43)c2=O)cc1 [Example 6, 4-(6-fluoro-3-oxo-1,3-dihydro-2H-pyrazolo[4,3-c]cinnolin-2-yl)-N-(pyrrolidin-1-yl-butyl)benzamide]",–,–,–

# Source: patent US8309552B2, “Immunomodulating heterocyclic compounds” (Medigene AG, priority 2003, dated 2012)
